Values quoted from earlier work in patent publication US7037523B2, “Controlled release compositions for macrolide antimicrobial agents” (Wockhardt Limited, priority 2001, dated 2006).

Tests used:
[1] = normal gastric pH of 1.0–2.0

CC[C@H]1OC(=O)[C@H](C)[C@@H](O[C@H]2C[C@@](C)(OC)[C@@H](O)[C@H](C)O2)[C@H](C)[C@@H](O[C@@H]2O[C@H](C)C[C@H](N(C)C)[C@H]2O)[C@](C)(OC)C[C@@H](C)C(=O)[C@H](C)[C@@H](O)[C@]1(C)O [Clarithromycin]
solubility in water: practically insoluble
degradation in acidic medium [1]: degrades rapidly
